Assay results published in ChEMBL document CHEMBL3885861, “Open TG-GATES”.

Organism: Rattus norvegicus
Test: Open TG-GATES - Regimen: Single
Format: toxicity, organism-based, Sprague-Dawley
Set-up: regimen Single, gender Male, age 6 weeks
Settings: in vivo, po, route gavage; for TC / TP / gamma-GTP / ALP / ALT / AST / BUN / CRE / Cl / IP / LDH / PL / RALB / TBIL / Ca / DBIL / K / Na: tissue Plasma; for APTT / Bas / Eos / Fbg / Hb / Ht / Lym / MCH / MCHC / MCV / Mono / PT / Plat / RBC / Ret / WBC: tissue Blood; for KIDNEY_L / KIDNEY_R / KIDNEY_TOTAL: tissue Kidney; for LIVER: tissue Liver
[1] = 0 mg/kg, 24 h, dose level Control

C#C[C@]1(O)CC[C@H]2[C@@H]3CCc4cc(O)ccc4[C@H]3CC[C@@]21C [ETHINYL ESTRADIOL]
TC [1]: 84.6 mg/dL | TP [1]: 5.4 g/dL | gamma-GTP [1]: 0.8 IU/L | TERMINAL_BW (1 mg/kg, 3 h, dose level Low): 195 g | APTT (1 mg/kg, 3 h, dose level Low): 16.3 s | Bas (1 mg/kg, 3 h, dose level Low): 0% | Eos (1 mg/kg, 3 h, dose level Low): 1% | Fbg (1 mg/kg, 3 h, dose level Low): 258.2 mg/dL | Hb (1 mg/kg, 3 h, dose level Low): 13 g/dL | Ht (1 mg/kg, 3 h, dose level Low): 39.1% | Lym (1 mg/kg, 3 h, dose level Low): 80.2% | MCH (1 mg/kg, 3 h, dose level Low): 21.9 pg | MCHC (1 mg/kg, 3 h, dose level Low): 33.4% | MCV (1 mg/kg, 3 h, dose level Low): 65.4 fL | Mono (1 mg/kg, 3 h, dose level Low): 3.4% | PT (1 mg/kg, 3 h, dose level Low): 12.3 s | Plat (1 mg/kg, 3 h, dose level Low): 118.9 x10_4/uL | RBC (1 mg/kg, 3 h, dose level Low): 598.2 x10_4/ul | Ret (1 mg/kg, 3 h, dose level Low): 9.4% | WBC (1 mg/kg, 3 h, dose level Low): 96.2 x10_2/uL | KIDNEY_L (1 mg/kg, 3 h, dose level Low): 0.8 g | KIDNEY_R (1 mg/kg, 3 h, dose level Low): 0.8 g | KIDNEY_TOTAL (1 mg/kg, 3 h, dose level Low): 1.6 g | LIVER (1 mg/kg, 3 h, dose level Low): 8.5 g | ALP (1 mg/kg, 3 h, dose level Low): 1630.2 IU/L | ALT (1 mg/kg, 3 h, dose level Low): 49 IU/L | AST (1 mg/kg, 3 h, dose level Low): 78.4 IU/L | BUN (1 mg/kg, 3 h, dose level Low): 11 mg/dL | CRE (1 mg/kg, 3 h, dose level Low): 0.2 mg/dL | Cl (1 mg/kg, 3 h, dose level Low): 106 meq/L | IP (1 mg/kg, 3 h, dose level Low): 9.2 mg/dL | LDH (1 mg/kg, 3 h, dose level Low): 54.2 IU/L | PL (1 mg/kg, 3 h, dose level Low): 146.4 mg/dL | RALB (1 mg/kg, 3 h, dose level Low): 2.6 g/dL | TBIL (1 mg/kg, 3 h, dose level Low): 0.038 mg/dL | TC (1 mg/kg, 3 h, dose level Low): 77.6 mg/dL | TP (1 mg/kg, 3 h, dose level Low): 5.5 g/dL | TERMINAL_BW (1 mg/kg, 6 h, dose level Low): 195.9 g | APTT (1 mg/kg, 6 h, dose level Low): 15.3 s | Bas (1 mg/kg, 6 h, dose level Low): 0% | Eos (1 mg/kg, 6 h, dose level Low): 1% | Fbg (1 mg/kg, 6 h, dose level Low): 262.8 mg/dL | Hb (1 mg/kg, 6 h, dose level Low): 12.9 g/dL | Ht (1 mg/kg, 6 h, dose level Low): 38.6% | Lym (1 mg/kg, 6 h, dose level Low): 68.6% | MCH (1 mg/kg, 6 h, dose level Low): 21.8 pg | MCHC (1 mg/kg, 6 h, dose level Low): 33.5% | MCV (1 mg/kg, 6 h, dose level Low): 65.2 fL | Mono (1 mg/kg, 6 h, dose level Low): 2.4% | PT (1 mg/kg, 6 h, dose level Low): 12.4 s | Plat (1 mg/kg, 6 h, dose level Low): 110.9 x10_4/uL | RBC (1 mg/kg, 6 h, dose level Low): 591.6 x10_4/ul | Ret (1 mg/kg, 6 h, dose level Low): 9.8% | WBC (1 mg/kg, 6 h, dose level Low): 83.7 x10_2/uL | KIDNEY_L (1 mg/kg, 6 h, dose level Low): 0.8 g | KIDNEY_R (1 mg/kg, 6 h, dose level Low): 0.8 g | KIDNEY_TOTAL (1 mg/kg, 6 h, dose level Low): 1.7 g | LIVER (1 mg/kg, 6 h, dose level Low): 8 g | ALP (1 mg/kg, 6 h, dose level Low): 1545.4 IU/L | ALT (1 mg/kg, 6 h, dose level Low): 40.8 IU/L | AST (1 mg/kg, 6 h, dose level Low): 80.8 IU/L | BUN (1 mg/kg, 6 h, dose level Low): 8 mg/dL | CRE (1 mg/kg, 6 h, dose level Low): 0.2 mg/dL | Ca (1 mg/kg, 6 h, dose level Low): 10.5 mg/dL | Cl (1 mg/kg, 6 h, dose level Low): 109.4 meq/L | DBIL (1 mg/kg, 6 h, dose level Low): 0.01 mg/dL | IP (1 mg/kg, 6 h, dose level Low): 10 mg/dL | K (1 mg/kg, 6 h, dose level Low): 4 meq/L | LDH (1 mg/kg, 6 h, dose level Low): 42.2 IU/L | Na (1 mg/kg, 6 h, dose level Low): 144.6 meq/L | PL (1 mg/kg, 6 h, dose level Low): 112 mg/dL | RALB (1 mg/kg, 6 h, dose level Low): 2.4 g/dL | TBIL (1 mg/kg, 6 h, dose level Low): 0.04 mg/dL | TC (1 mg/kg, 6 h, dose level Low): 55 mg/dL | TP (1 mg/kg, 6 h, dose level Low): 5.2 g/dL | TERMINAL_BW (1 mg/kg, 9 h, dose level Low): 196.1 g | APTT (1 mg/kg, 9 h, dose level Low): 15.5 s | Bas (1 mg/kg, 9 h, dose level Low): 0% | Eos (1 mg/kg, 9 h, dose level Low): 0.8% | Fbg (1 mg/kg, 9 h, dose level Low): 265.6 mg/dL | Hb (1 mg/kg, 9 h, dose level Low): 12.7 g/dL | Ht (1 mg/kg, 9 h, dose level Low): 37.6% | Lym (1 mg/kg, 9 h, dose level Low): 75.4% | MCH (1 mg/kg, 9 h, dose level Low): 21.9 pg | MCHC (1 mg/kg, 9 h, dose level Low): 33.7% | MCV (1 mg/kg, 9 h, dose level Low): 65.1 fL | Mono (1 mg/kg, 9 h, dose level Low): 2.4% | PT (1 mg/kg, 9 h, dose level Low): 12.8 s | Plat (1 mg/kg, 9 h, dose level Low): 110 x10_4/uL | RBC (1 mg/kg, 9 h, dose level Low): 578.2 x10_4/ul | Ret (1 mg/kg, 9 h, dose level Low): 9.3% | WBC (1 mg/kg, 9 h, dose level Low): 75.5 x10_2/uL | KIDNEY_L (1 mg/kg, 9 h, dose level Low): 0.9 g | KIDNEY_R (1 mg/kg, 9 h, dose level Low): 0.8 g | KIDNEY_TOTAL (1 mg/kg, 9 h, dose level Low): 1.7 g | LIVER (1 mg/kg, 9 h, dose level Low): 7.7 g | ALP (1 mg/kg, 9 h, dose level Low): 1698.8 IU/L | ALT (1 mg/kg, 9 h, dose level Low): 37.6 IU/L | AST (1 mg/kg, 9 h, dose level Low): 75.6 IU/L | BUN (1 mg/kg, 9 h, dose level Low): 9.2 mg/dL | CRE (1 mg/kg, 9 h, dose level Low): 0.2 mg/dL | Ca (1 mg/kg, 9 h, dose level Low): 10.6 mg/dL | Cl (1 mg/kg, 9 h, dose level Low): 109 meq/L | DBIL (1 mg/kg, 9 h, dose level Low): 0.012 mg/dL | IP (1 mg/kg, 9 h, dose level Low): 10.2 mg/dL | K (1 mg/kg, 9 h, dose level Low): 3.8 meq/L | LDH (1 mg/kg, 9 h, dose level Low): 40.6 IU/L | Na (1 mg/kg, 9 h, dose level Low): 145.2 meq/L | PL (1 mg/kg, 9 h, dose level Low): 96.4 mg/dL | RALB (1 mg/kg, 9 h, dose level Low): 2.5 g/dL | TBIL (1 mg/kg, 9 h, dose level Low): 0.042 mg/dL | TC (1 mg/kg, 9 h, dose level Low): 44.8 mg/dL | TP (1 mg/kg, 9 h, dose level Low): 5.2 g/dL | gamma-GTP (1 mg/kg, 9 h, dose level Low): 1.2 IU/L | TERMINAL_BW (1 mg/kg, 24 h, dose level Low): 200.1 g | APTT (1 mg/kg, 24 h, dose level Low): 14.9 s | Bas (1 mg/kg, 24 h, dose level Low): 0% | Eos (1 mg/kg, 24 h, dose level Low): 1% | Fbg (1 mg/kg, 24 h, dose level Low): 224.6 mg/dL | Hb (1 mg/kg, 24 h, dose level Low): 13.1 g/dL | Lym (1 mg/kg, 24 h, dose level Low): 75.2% | MCHC (1 mg/kg, 24 h, dose level Low): 34% | MCV (1 mg/kg, 24 h, dose level Low): 62.5 fL | Mono (1 mg/kg, 24 h, dose level Low): 3.4% | PT (1 mg/kg, 24 h, dose level Low): 13.2 s | Plat (1 mg/kg, 24 h, dose level Low): 107.2 x10_4/uL | RBC (1 mg/kg, 24 h, dose level Low): 619.8 x10_4/ul | Ret (1 mg/kg, 24 h, dose level Low): 7.6% | WBC (1 mg/kg, 24 h, dose level Low): 93.7 x10_2/uL | KIDNEY_L (1 mg/kg, 24 h, dose level Low): 0.9 g | KIDNEY_R (1 mg/kg, 24 h, dose level Low): 0.9 g | KIDNEY_TOTAL (1 mg/kg, 24 h, dose level Low): 1.8 g | LIVER (1 mg/kg, 24 h, dose level Low): 9.3 g | ALP (1 mg/kg, 24 h, dose level Low): 2023.4 IU/L | AST (1 mg/kg, 24 h, dose level Low): 74.8 IU/L | CRE (1 mg/kg, 24 h, dose level Low): 0.2 mg/dL | Ca (1 mg/kg, 24 h, dose level Low): 10.8 mg/dL | Cl (1 mg/kg, 24 h, dose level Low): 106.4 meq/L | DBIL (1 mg/kg, 24 h, dose level Low): 0.024 mg/dL | IP (1 mg/kg, 24 h, dose level Low): 7.4 mg/dL | K (1 mg/kg, 24 h, dose level Low): 4 meq/L | LDH (1 mg/kg, 24 h, dose level Low): 59.6 IU/L | Na (1 mg/kg, 24 h, dose level Low): 142.8 meq/L | PL (1 mg/kg, 24 h, dose level Low): 113.6 mg/dL | RALB (1 mg/kg, 24 h, dose level Low): 2.5 g/dL | TBIL (1 mg/kg, 24 h, dose level Low): 0.034 mg/dL | TC (1 mg/kg, 24 h, dose level Low): 40.8 mg/dL | TP (1 mg/kg, 24 h, dose level Low): 5.3 g/dL | gamma-GTP (1 mg/kg, 24 h, dose level Low): 1.2 IU/L
